Laboratory results as given in patent publication US5324648A, “Substituted isocoumarins as serine protease inhibitors and anti-inflammatory agents” (Georgia Tech Research Corporation, priority 1992, dated 1994).
Where two headings read alike, the source gives them in different places.

Key:
human factor XIIa = target: T1, human factor XIIa (Homo sapiens, UniProt P00748); test: Inactivation rate of human factor XIIa; type: biochemical; conditions: Table VIII; pH 7.5, 25° C; [I] 3.6-4.9 μM; read-out: kobs/[I]
T1 construct: human factor XIIa
T1 sequence (P00748 373-615 limits assumed): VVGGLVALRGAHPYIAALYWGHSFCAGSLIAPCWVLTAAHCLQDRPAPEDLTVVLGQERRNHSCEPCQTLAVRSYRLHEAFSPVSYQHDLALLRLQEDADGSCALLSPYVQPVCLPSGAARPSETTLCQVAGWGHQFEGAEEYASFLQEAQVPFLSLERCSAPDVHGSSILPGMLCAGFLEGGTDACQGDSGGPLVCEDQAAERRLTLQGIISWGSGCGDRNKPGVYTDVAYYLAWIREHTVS
T1 sequence (P00748 20-372 partner limits assumed): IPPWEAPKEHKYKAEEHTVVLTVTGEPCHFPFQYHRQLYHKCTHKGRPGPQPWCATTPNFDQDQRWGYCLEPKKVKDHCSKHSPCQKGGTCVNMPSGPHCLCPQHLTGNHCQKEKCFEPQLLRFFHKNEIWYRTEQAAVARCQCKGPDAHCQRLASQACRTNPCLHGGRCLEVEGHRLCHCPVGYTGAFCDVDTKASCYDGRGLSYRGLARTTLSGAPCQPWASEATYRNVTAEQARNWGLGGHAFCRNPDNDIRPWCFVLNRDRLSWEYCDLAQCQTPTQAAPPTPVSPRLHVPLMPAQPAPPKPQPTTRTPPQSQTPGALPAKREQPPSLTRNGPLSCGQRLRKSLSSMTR
Method: (§1) Inactivation rates of serine proteases by substituted isocoumarins were measured by the incubation method. An aliquot of inhibitor (25 or 50 μl) in Me2 SO was added to a buffered enzyme solution (0.01-2.3 μM) to initiate the inactivation. Aliquots (50 μl) were withdrawn at various intervals and the residual enzymatic activity was measured. Me2 SO concentration in the reaction mixture was 8-12% (v/v). 0.1 Hepes, 0.01M CaCl2, pH 7.5 buffer was utilized for trypsin and coagulation enzymes. 0.1M Hepes, 0.5M NaCl, pH 7.5 was utilized for other serine proteases. The inhibitor concentrations are shown in all the tables. Peptide thioesters or peptide nitroanilides with appropriate sequence were used as substrates for various serine proteases. All peptide thioester hydrolysis rates were measured with assay mixtures containing 4,4'-dithiodipyridine (ε324 =19800M^-1 cm^-1; Grasetti & Murray, Arch. Biochem. Biophys. 119, pp 41-49 (1967)). Peptide 4-nitroanilide nitroanilide hydrolysis was measured at 410 nm (ε410 =8800M^-1 cm^-1; Erlanger et al., Arch. Biochem. Biophys. 95, pp 271-278 (1961)). First order inactivation rate constant (kobs) were obtained from plots of ln (vt /vo) vs time, and the correlation coefficients were greater than 0.98.
^a Conditions were as 0.1M Hepes, 0.01M CaCl2, pH 7.5 and 8-12%
Me2 SO and 25° C. Rate constants were measured by incubation
method unless otherwise noted. An aliquot of inhibitor was added to an
enzyme solution and aliquots removed with time and assayed for remaining
enzymatic activity. Firstorder rate constants, kobs were obtained
from the plots of ln(vt /vo) versus time.
(§2) ^a Inhibition rates were measured in 0.1M Hepes, 0.01M CaCl2, pH
7.5 buffer, 8% Me2 SO and at 25° C.

human lung tryptase = test: Inactivation rate of human lung tryptase; type: biochemical; conditions: Table IX; pH 7.5, 25° C; [I] 0.42-0.47 μM
Outline: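 Incubation method in 0.1M Hepes, 0.5M NaCl, pH 7.5, 8% Me2SO, 25° C; inhibitor added to enzyme, aliquots withdrawn over time for residual activity. Substrate ZArg-SBzl (0.07 mM) with 4,4'-dithiodipyridine (0.33 mM). kobs from ln(vt/vo) vs time plots.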

rat skin tryptase = target: T2, rat skin tryptase (Rattus norvegicus, UniProt P27435); test: Inactivation rate of rat skin tryptase; type: biochemical; conditions: pH 7.5, Table IX; pH 7.5, 25° C; [I] 0.42-0.51 μM; read-out: kobs/[I]
T2 construct: from tissue; host or cells: rat skin
Outline: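 Rat skin tryptase incubated with isocoumarin inhibitor in 25 mM phosphate, 0.5 M NaCl, 1 mM EDTA, pH 7.5, 8-9% Me2SO, 25 °C; aliquots withdrawn over time for residual activity on ZArg-SBzl (0.07 mM) with 4,4'-dithiodipyridine (0.33 mM). First-order kobs from ln(vt/vo) versus time.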

bovine thrombin = target: T3, bovine thrombin (Bos taurus, UniProt P00735); test: Inactivation rate of bovine thrombin; type: biochemical; conditions: Table VIII; pH 7.5, 25° C; [I] 1.2-54 μM; read-out: kobs/[I]
T3 construct: bovine thrombin
Outline: (§3)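 Incubating enzyme with inhibitor in Ca2+-containing Hepes, pH 7.5, 8-12% Me2SO, 25° C, then sampling over time, gave residual activity measured spectrophotometrically with thioester or nitroanilide substrates; kobs was taken from ln(vt/vo) plots.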

[1] = target: recombinant human tissue plasminogen activator (Homo sapiens, UniProt P00750); test: Inactivation rate of recombinant human tissue plasminogen activator; type: biochemical; conditions: pH 7.5, Table IX; pH 7.5, 25° C; [I] 3.5-5.0 μM; read-out: kobs/[I]
Outline: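 Incubation method: enzyme mixed with inhibitor in Me2SO (8–12% v/v) in 0.1M Hepes, 0.5M NaCl, pH 7.5; aliquots withdrawn over time for residual activity with ZArg-SBzl (0.07 mM) plus 4,4'-dithiodipyridine (0.33 mM). kobs taken from ln(vt/vo) versus time plots.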

human skin tryptase = test: Inhibition of human skin tryptase; type: biochemical; conditions: Table IX; pH 7.5, 25° C; [I] 0.34-0.39 μM
Method: as §1, §2
7.5 buffer for human plasmin; 25 mM Phosphate, 0.5M NaCl, 1 mM EDTA, pH
7.5 buffer for rat skin tryptase and 0.1M Hepes, 0.5M NaCl, pH 7.5 for
human lung tryptase, human skin tryptase and rt-PA. All enzymes were
assayed with ZArg-SBzl (0.07 mM) in the presence of 4,4dithiodipyridine
(0.33 mM). Reaction mixtures contained 8% Me2 SO and assays were […]

human factor Xa = target: T4, human factor Xa (Homo sapiens, UniProt P00742); test: Inactivation rate of human factor Xa; type: biochemical; conditions: Table VIII; pH 7.5, 25° C; [I] 3.6-44 μM; read-out: kobs/[I]
T4 construct: human factor Xa
Outline: as §3

human thrombin = target: T5, human thrombin (Homo sapiens, UniProt P00734); test: Inactivation rate of human thrombin; type: biochemical; conditions: Table VIII; pH 7.5, 25° C; [I] 1.2-54 μM; read-out: kobs/[I]
T5 construct: human thrombin
Outline: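 Incubation method: enzyme (0.01-2.3 μM) mixed with inhibitor in 0.1M Hepes, 0.01M CaCl2, pH 7.5, 8% Me2SO, 25° C; residual activity sampled over time with peptide thioester or 4-nitroanilide substrates. kobs from ln(vt/vo) vs time plots.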

[2] = target: T6, porcine pancreatic elastase (PPE) (Sus scrofa, UniProt P00772); test: Inactivation of porcine pancreatic elastase (PPE); type: biochemical; conditions: Table X; after 20 min incubation
T6 construct: from tissue; host or cells: porcine pancreas (from the name)

[3] = target: T7, human leukocyte elastase (HLE) (Homo sapiens, UniProt P08246); test: Inactivation of human leukocyte elastase (HLE); type: biochemical; conditions: pH 7.5, Table X, biphasic inhibition
T7 construct: from tissue; host or cells: human leukocytes (from the name)
T7 sequence (P08246 30-267): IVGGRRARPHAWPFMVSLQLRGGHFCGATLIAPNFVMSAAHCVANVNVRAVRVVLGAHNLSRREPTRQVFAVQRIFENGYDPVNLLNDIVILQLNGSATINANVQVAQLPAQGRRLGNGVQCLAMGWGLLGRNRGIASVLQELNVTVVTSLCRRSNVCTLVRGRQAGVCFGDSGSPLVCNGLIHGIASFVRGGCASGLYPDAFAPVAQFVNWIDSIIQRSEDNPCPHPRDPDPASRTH

cathepsin G = target: T8, cathepsin G (Homo sapiens, UniProt P08311); test: Inactivation of cathepsin G; type: biochemical; conditions: Table X; pH 7.5, 25° C; [I] 33-46 μM; read-out: kobs/[I]
T8 construct: from tissue; host or cells: human leukocytes
T8 sequence (P08311 21-255): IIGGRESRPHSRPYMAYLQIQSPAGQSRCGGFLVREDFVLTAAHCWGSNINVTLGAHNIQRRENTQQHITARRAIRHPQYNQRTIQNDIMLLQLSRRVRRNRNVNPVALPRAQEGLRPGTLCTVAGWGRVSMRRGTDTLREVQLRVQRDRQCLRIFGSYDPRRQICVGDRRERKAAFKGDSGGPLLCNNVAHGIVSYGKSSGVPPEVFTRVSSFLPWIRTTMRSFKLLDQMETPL

chymotrypsin = chymotrypsin (Bos taurus, UniProt P00766); test: Inactivation of chymotrypsin; type: biochemical, bovine; conditions: Table X; pH 7.5, 25° C; [I] 0.9-43 μM; read-out: kobs/[I]
pig plasma [4] = test: Activated partial thromboplastin time (APTT), pig plasma; conditions: [I] 32 μM
human plasmin = target: T9, human plasmin (Homo sapiens, UniProt P00747); test: Inactivation rate of human plasmin; type: biochemical; conditions: Table IX; 0.01M CaCl2, pH 7.5, 25° C; [I] 8.3-41 μM; read-out: kobs/[I]
T9 construct: human plasmin; from tissue; host or cells: human plasma

pig plasma [5] = test: Prothrombin time (PT), pig plasma; conditions: [I] 32 μM

T6 sequence (P00772 27-266): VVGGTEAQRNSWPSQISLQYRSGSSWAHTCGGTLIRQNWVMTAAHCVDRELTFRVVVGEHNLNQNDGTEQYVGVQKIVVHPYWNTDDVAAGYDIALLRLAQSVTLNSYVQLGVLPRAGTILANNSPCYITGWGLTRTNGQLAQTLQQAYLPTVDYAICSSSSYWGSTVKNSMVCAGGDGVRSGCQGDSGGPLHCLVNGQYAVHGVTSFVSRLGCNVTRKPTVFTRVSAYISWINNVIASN
Sequence of recombinant human tissue plasminogen activator (P00750 36-562): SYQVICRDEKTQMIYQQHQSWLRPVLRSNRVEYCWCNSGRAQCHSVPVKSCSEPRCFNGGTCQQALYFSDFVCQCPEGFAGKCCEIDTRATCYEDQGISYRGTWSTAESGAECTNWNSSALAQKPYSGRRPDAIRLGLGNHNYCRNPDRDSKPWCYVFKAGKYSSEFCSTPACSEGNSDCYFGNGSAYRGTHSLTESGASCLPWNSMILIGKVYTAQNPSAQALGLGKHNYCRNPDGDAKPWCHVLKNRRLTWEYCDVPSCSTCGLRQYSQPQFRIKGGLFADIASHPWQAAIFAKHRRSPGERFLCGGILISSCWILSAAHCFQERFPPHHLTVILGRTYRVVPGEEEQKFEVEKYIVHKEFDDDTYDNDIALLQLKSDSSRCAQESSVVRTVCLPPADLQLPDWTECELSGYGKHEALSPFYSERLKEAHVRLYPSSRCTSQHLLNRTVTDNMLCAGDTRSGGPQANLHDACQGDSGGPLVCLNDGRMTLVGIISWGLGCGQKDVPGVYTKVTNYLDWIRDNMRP
T9 sequence (P00747 581-810 limits assumed): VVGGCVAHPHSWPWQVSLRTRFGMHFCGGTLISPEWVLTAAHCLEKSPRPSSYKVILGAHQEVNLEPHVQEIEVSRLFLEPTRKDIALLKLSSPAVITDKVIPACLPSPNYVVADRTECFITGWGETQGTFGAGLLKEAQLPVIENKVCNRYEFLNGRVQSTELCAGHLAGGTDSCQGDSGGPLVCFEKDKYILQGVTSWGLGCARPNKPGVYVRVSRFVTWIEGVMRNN
T9 sequence (P00747 97-580 partner limits assumed): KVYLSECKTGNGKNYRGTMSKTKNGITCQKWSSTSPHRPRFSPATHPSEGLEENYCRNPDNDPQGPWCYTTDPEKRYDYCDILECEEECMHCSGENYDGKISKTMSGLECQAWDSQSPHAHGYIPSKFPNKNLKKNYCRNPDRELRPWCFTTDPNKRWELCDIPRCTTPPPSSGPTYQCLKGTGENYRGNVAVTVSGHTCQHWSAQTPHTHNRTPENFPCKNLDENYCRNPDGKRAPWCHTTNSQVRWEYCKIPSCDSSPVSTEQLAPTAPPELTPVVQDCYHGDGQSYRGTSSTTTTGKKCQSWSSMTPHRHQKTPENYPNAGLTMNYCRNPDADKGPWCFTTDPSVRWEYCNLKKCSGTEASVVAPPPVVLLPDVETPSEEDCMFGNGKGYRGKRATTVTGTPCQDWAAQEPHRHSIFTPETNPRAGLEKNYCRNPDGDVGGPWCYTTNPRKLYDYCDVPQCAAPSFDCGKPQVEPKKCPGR
T4 sequence (P00742 235-488 limits assumed): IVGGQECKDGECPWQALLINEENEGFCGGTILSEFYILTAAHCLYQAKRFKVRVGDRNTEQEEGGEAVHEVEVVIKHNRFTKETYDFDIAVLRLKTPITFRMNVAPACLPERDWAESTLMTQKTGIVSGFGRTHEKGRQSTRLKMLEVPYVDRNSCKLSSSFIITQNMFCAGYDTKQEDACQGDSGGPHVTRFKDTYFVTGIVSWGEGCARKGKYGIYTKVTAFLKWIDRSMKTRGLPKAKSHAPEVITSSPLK
T4 sequence (P00742 41-179 partner limits assumed): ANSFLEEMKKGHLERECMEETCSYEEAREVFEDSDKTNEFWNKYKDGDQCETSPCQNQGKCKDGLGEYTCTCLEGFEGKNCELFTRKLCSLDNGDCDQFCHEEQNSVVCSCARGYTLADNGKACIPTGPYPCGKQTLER
T2 sequence (P27435 29-273): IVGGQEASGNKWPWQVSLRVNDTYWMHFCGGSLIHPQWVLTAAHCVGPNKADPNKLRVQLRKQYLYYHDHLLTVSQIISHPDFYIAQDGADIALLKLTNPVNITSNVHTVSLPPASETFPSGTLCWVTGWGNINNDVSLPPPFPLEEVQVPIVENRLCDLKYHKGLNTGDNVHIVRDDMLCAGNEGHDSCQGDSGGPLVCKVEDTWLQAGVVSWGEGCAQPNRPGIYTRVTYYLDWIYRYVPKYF

SMILES | kinact/KI (human factor XIIa) | kobs/[I] (human lung tryptase) | kinact/KI (rat skin tryptase) | kinact/KI (bovine thrombin) | kinact/KI [1] | kobs/[I] (human skin tryptase) | kinact/KI (human factor Xa) | kinact/KI (human thrombin) | percentage of inhibition [2] | kinact/KI ([3]; read-out: kobs/[I] (biphasic, first value)) | kinact/KI ([3]; read-out: kobs/[I] (biphasic, second value)) | kinact/KI (cathepsin G) | kinact/KI (chymotrypsin) | APTT (pig plasma [4]) | kinact/KI (human plasmin) | PT (pig plasma [5])
N=C(N)SCCOc1oc(=O)c2cc(NC(=O)[C@H](N)Cc3ccccc3)ccc2c1Cl [D-Phe--NH-CiTEtOIC, 7-(D-phenylalanylamino)-4-chloro-3-(2-isothiureidoethoxy)isocoumarin] | 82000 M⁻¹ s⁻¹ | 60,000 M^-1 s^-1 | 360000 M⁻¹ s⁻¹ | 4240 M⁻¹ s⁻¹ | 15000 M⁻¹ s⁻¹ | 62,000 M^-1 s^-1 | 3070 M⁻¹ s⁻¹ | 3070 M⁻¹ s⁻¹ |  |  |  |  |  |  |  | 
C[C@H](NC(=O)Nc1ccc2c(Cl)c(OCCSC(=N)N)oc(=O)c2c1)c1ccccc1 [S-C6 H5 (CH3)CHNHCONH-CiTEtOIC, 7-((S)-α-methylbenzylcarbamoylamino)-4-chloro-3-(2-isothiureidoethoxy)isocoumarin] |  |  |  | 41300 M⁻¹ s⁻¹ |  |  |  | 21000 M⁻¹ s⁻¹ | 21% | 5100 M⁻¹ s⁻¹ | 360 M⁻¹ s⁻¹ | 35 M⁻¹ s⁻¹ | 260 M⁻¹ s⁻¹ | > 120 s | 27800 M⁻¹ s⁻¹ | 30.0 s
